Experimental data taken from US11136317B2, “NADPH oxidase 4 inhibitors” (ACTELION PHARMACEUTICALS LTD, priority 2015, dated 2021).
pIC50: −log10 of the molar value.

Molecular target: T1, human NOX4 (Homo sapiens, UniProt Q9NPH5)
T1 construct: The full-length human NOX4 (NM_016931.3) transcript was cloned; expressed in transfected cells
T1 sequence (Q9NPH5 1-578): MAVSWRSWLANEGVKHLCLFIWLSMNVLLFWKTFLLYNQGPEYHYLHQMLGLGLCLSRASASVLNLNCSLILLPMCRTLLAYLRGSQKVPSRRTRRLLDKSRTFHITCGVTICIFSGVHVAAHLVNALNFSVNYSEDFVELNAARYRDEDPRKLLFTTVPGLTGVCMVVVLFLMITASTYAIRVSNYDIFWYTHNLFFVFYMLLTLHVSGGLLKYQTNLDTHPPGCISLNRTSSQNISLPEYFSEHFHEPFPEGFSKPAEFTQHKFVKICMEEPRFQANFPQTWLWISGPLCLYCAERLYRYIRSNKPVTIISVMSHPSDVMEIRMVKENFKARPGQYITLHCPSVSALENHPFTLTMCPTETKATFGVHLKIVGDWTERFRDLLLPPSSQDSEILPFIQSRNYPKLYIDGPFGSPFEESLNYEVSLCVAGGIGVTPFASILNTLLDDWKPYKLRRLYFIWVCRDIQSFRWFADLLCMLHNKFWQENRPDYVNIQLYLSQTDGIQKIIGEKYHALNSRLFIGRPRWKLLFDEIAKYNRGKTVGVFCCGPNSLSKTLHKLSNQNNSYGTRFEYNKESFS
T1 sequence (P13498 1-195 partner): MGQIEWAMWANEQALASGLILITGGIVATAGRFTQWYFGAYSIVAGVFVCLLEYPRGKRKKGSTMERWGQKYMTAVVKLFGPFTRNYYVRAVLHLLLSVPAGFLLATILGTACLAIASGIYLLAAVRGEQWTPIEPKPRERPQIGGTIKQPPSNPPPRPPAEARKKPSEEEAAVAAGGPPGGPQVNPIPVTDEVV
Experiment: Amplex Red activity assay (cellular H2O2 formation in hNOX4 T-REx-293 cells)
Format: cell-based
Details: tet-induced 24 h, extracellular H2O2 by Amplex Red, 60 min 25° C., geometric mean if determined several times
Protocol: The nucleotide sequence and the amino acid sequence for the human NOX4 (Entrez Gene ID 50507) is known in the art and are published. The potency and efficacy of the compounds of Formula (I) are assessed for their potential to inhibit the formation of ROS in a cellular assay.
The full-length human NOX4 (NM_016931.3) transcript was cloned into the pDONR™221 vector (Life Technologies™) in order to generate, by site-specific integration according to the recommendation of the manufacturer (Life Technologies™), a recombinant pJTI™ R4 DEST CMV-TO vector containing the NOX4 coding information controlled by tetracycline (tet) responsive tet-on cytomegalovirus promoter (hNOX4 pDEST).
Modified human embryonic kidney cells overexpressing a tet receptor (Jump-In™ T-REx™ HEK293; Life Technologies™) were transfected with the NOX4-containing tet-on vector (hNOX4 pDEST) to generate a stable recombinant cell pool (hNOX4 T-REx-293). hNOX4 T-REx-293 cells were cultured in DMEM containing 4.5 g/L glucose supplemented with 10% fetal calf serum, penicillin (100 U/mL), streptomycin (100 μg/mL), geneticin (1 mg/mL), and blasticidin (5 μg/mL) at 37° C. in air with 5% CO2. Human Nox4 expression was induced with tet (1 μg/mL) for 24 h and extracellular H2O2 was quantified using the Amplex Red reagent (Life Technologies™).
Compounds were prepared as 10 mM stock solution in DMSO vehicle, then diluted in 384-well plates using DMSO followed by a transfer of the dilutions into the assay plate. As a control, diphenylene iodonium was included at a final concentration of 10 μM. Compounds were tested at 10 concentrations in the range from 50 μM highest to 100 nM lowest.
Cellular H2O2 formation was measured using the Amplex Red reagent. […] Cells were seeded into 384-well clear bottom plates at a density of 20 000 cells per well in presence or absence of compounds. […] All wells contained 1.25% of DMSO. The plates were kept at 25° C. for 60 min. The amount of produced resorufin was detected with the Synergy™ Mx microplate reader (BioTek) with excitation and emission wavelengths set to 550 nm and 600 nm, respectively. Fluorescence was measured for each well and the fluorescence at 600 nm wavelength was compared to the fluorescence of the vehicle in place of compound. Inhibitory activities of example compounds were determined by calculating the IC50 value (the concentration of compound needed to inhibit 50% of the enzyme activity). The calculated IC50 values may fluctuate depending on the daily cellular assay performance. Fluctuations of this kind are known to those skilled in the art.

SMILES | pIC50
O=C(Nc1ccc2oc(N3CCC3c3ccccc3)nc2c1)c1ccc2c(c1)CCO2 (racemic) [Example 62, rac-2,3-Dihydro-benzofuran-5-carboxylic acid [2-(2-phenyl-azetidin-1-yl)-benzooxazol-5-yl]-amide] | 6.15
O=C(Nc1ccc2sc(N3CCC3c3ccccc3)nc2c1)c1ccc2c(c1)CCO2 (racemic) [Example 111, rac-2,3-Dihydro-benzofuran-5-carboxylic acid [2-(2-phenyl-azetidin-1-yl)-benzothiazol-5-yl]-amide] | 5.96
O=C(Nc1ccc2oc(N3CCCCC3)nc2c1)c1ccc2c(c1)CCO2 [Example 2, 2,3-Dihydro-benzofuran-5-carboxylic acid (2-piperidin-1-yl-benzooxazol-5-yl)-amide] | 6.19
O=C(Nc1ccc2oc(N3CCCC3)nc2c1)c1ccc2c(c1)CCO2 [Example 3, 2,3-Dihydro-benzofuran-5-carboxylic acid (2-pyrrolidin-1-yl-benzooxazol-5-yl)-amide] | 6.05
CN1CCN(c2nc3cc(NC(=O)c4ccc5c(c4)CCO5)ccc3o2)CC1 [Example 4, 2,3-Dihydro-benzofuran-5-carboxylic acid [2-(4-methyl-piperazin-1-yl)-benzooxazol-5-yl]-amide] | 6.01
O=C(Nc1ccc2oc(N3CCOCC3)nc2c1)c1ccc2c(c1)CCO2 [Example 5, 2,3-Dihydro-benzofuran-5-carboxylic acid (2-morpholin-4-yl-benzooxazol-5-yl)-amide] | 6.20
CCN(CC)c1nc2cc(NC(=O)c3ccc4c(c3)CCO4)ccc2o1 [Example 6, 2,3-Dihydro-benzofuran-5-carboxylic acid (2-diethylamino-benzooxazol-5-yl)-amide] | 6.25
O=C(Nc1ccc2oc(N3CCC(F)(F)CC3)nc2c1)c1ccc2c(c1)CCO2 [Example 7, 2,3-Dihydro-benzofuran-5-carboxylic acid [2-(4,4-difluoro-piperidin-1-yl)-benzooxazol-5-yl]-amide] | 6.45
O=C(Nc1ccc2oc(N3CC(F)(F)C3)nc2c1)c1ccc2c(c1)CCO2 [Example 8, 2,3-Dihydro-benzofuran-5-carboxylic acid [2-(3,3-difluoro-azetidin-1-yl)-benzooxazol-5-yl]-amide] | 5.72
O=C(Nc1ccc2oc(N3CCC(F)(F)C3)nc2c1)c1ccc2c(c1)CCO2 [Example 9, 2,3-Dihydro-benzofuran-5-carboxylic acid [2-(3,3-difluoro-pyrrolidin-1-yl)-benzooxazol-5-yl]-amide] | 6.24
COC1CCN(c2nc3cc(NC(=O)c4ccc5c(c4)CCO5)ccc3o2)C1 (centres unmarked) [Example 10, 2,3-Dihydro-benzofuran-5-carboxylic acid [2-(3-methoxy-pyrrolidin-1-yl)-benzooxazol-5-yl]-amide] | 6.15
COC1CCN(c2nc3cc(NC(=O)c4ccc5c(c4)CCO5)ccc3o2)CC1 [Example 11, 2,3-Dihydro-benzofuran-5-carboxylic acid [2-(4-methoxy-piperidin-1-yl)-benzooxazol-5-yl]-amide] | 6.45
CC1(O)CN(c2nc3cc(NC(=O)c4ccc5c(c4)CCO5)ccc3o2)C1 [Example 12, 2,3-Dihydro-benzofuran-5-carboxylic acid [2-(3-hydroxy-3-methyl-azetidin-1-yl)-benzooxazol-5-yl]-amide] | 6.16
CN(C)CCN(C)c1nc2cc(NC(=O)c3ccc4c(c3)CCO4)ccc2o1 [Example 13, 2,3-Dihydro-benzofuran-5-carboxylic acid {2-[(2-dimethylamino-ethyl)-methyl-amino]-benzooxazol-5-yl}-amide; compound with formic acid] | 5.27
CN(C)C1CCN(c2nc3cc(NC(=O)c4ccc5c(c4)CCO5)ccc3o2)CC1 [Example 14, 2,3-Dihydro-benzofuran-5-carboxylic acid [2-(4-dimethylamino-piperidin-1-yl)-benzooxazol-5-yl]-amide; compound with formic acid] | 5.77
O=C(Nc1ccc2oc(N3CCC34COC4)nc2c1)c1ccc2c(c1)CCO2 [Example 15, 2,3-Dihydro-benzofuran-5-carboxylic acid [2-(6-oxa-1-aza-spiro[3.3]hept-1-yl)-benzooxazol-5-yl]-amide] | 6.39
O=C(Nc1ccc2oc(N3CCCC(F)(F)C3)nc2c1)c1ccc2c(c1)CCO2 [Example 16, 2,3-Dihydro-benzofuran-5-carboxylic acid [2-(3,3-difluoro-pipeiidin-1-yl)-benzooxazol-5-yl]-amide] | 6.41
O=C(Nc1ccc2oc(N3CC(N4CCOCC4)C3)nc2c1)c1ccc2c(c1)CCO2 [Example 17, 2,3-Dihydro-benzofuran-5-carboxylic acid [2-(3-morpholin-4-yl-azetidin-1-yl)-benzooxazol-5-yl]-amide] | 5.64
CN(c1nc2cc(NC(=O)c3ccc4c(c3)CCO4)ccc2o1)C1(C)COC1 [Example 18, 2,3-Dihydro-benzofuran-5-carboxylic acid {2-[methyl-(3-methyl-oxetan-3-yl)-amino]-benzooxazol-5-yl}-amide] | 6.25
O=C(Nc1ccc2oc(N3CC(N4CCS(=O)(=O)CC4)C3)nc2c1)c1ccc2c(c1)CCO2 [Example 19, 2,3-Dihydro-benzofuran-5-carboxylic acid {2-[3-(1,1-dioxo-1l6-thiomoipholin-4-yl)-azetidin-1-yl]-benzooxazol-5-yl}-amide] | 5.54
CC1(O)CN(C2CN(c3nc4cc(NC(=O)c5ccc6c(c5)CCO6)ccc4o3)C2)C1 [Example 20, 2,3-Dihydro-benzofuran-5-carboxylic acid [2-(3-hydroxy-3-methyl-[1,3′]biazetidinyl-1′-yl)-benzooxazol-5-yl]-amide] | 5.85
O=C(Nc1ccc2oc(N3CC4(CCO4)C3)nc2c1)c1ccc2c(c1)CCO2 [Example 21, 2,3-Dihydro-benzofuran-5-carboxylic acid [2-(1-oxa-6-aza-spiro[3.3]hept-6-yl)-benzooxazol-5-yl]-amide] | 5.79
O=C(Nc1ccc2oc(N3CCC4(COC4)C3)nc2c1)c1ccc2c(c1)CCO2 [Example 22, 2,3-Dihydro-benzofuran-5-carboxylic acid [2-(2-oxa-6-aza-spiro[3.4]oct-6-yl)-benzooxazol-5-yl]-amide] | 6.30
O=C(Nc1ccc2oc(N3CC4(CCCOC4)C3)nc2c1)c1ccc2c(c1)CCO2 [Example 23, 2,3-Dihydro-benzofuran-5-carboxylic acid [2-(6-oxa-2-aza-spiro[3.5]non-2-yl)-benzooxazol-5-yl]-amide] | 5.83
O=C(Nc1ccc2oc(N3CCCC34COC4)nc2c1)c1ccc2c(c1)CCO2 [Example 24, 2,3-Dihydro-benzofuran-5-carboxylic acid [2-(2-oxa-5-aza-spiro[3.4]oct-5-yl)-benzooxazol-5-yl]-amide] | 6.45
O=C(Nc1ccc2oc(N3CCCC4(CCO4)C3)nc2c1)c1ccc2c(c1)CCO2 (centres unmarked) [Example 25, 2,3-Dihydro-benzofuran-5-carboxylic acid [2-(1-oxa-6-aza-spiro[3.5]non-6-yl)-benzooxazol-5-yl]-amide] | 6.09
